Consider six molecules from US8372973B2, “Prokineticin 1 receptor antagonists” (Janssen Pharmaceutica N.V., priority 2005, dated 2013).

Values joined by “and” are separate entries in the source; they are usually repeats but may differ in a detail not shown here. Identical values can stand only once. “Also recorded” adds a separate entry of the source. Like-named read-outs stand apart in the source and are kept apart here.

As a reminder, the IC50 is the concentration at which inhibition is half-maximal.

The target in assay [1] is T1, GPR73 (prokineticin 1 receptor) (Homo sapiens, UniProt Q8TCW9).
T1 construct: expressed in transfected cells; host or cells: HEK 293
Briefly: PK1 functional assay: Ca2+ mobilization on the FLIPR. In kind it is cell-based. The conditions noted are these: for inhibition at 10 µM: read-out: Ca^2+ Mobilization % Inh @10 μM; for IC50: HEK 293 GPR73 expressing cells, PK1 ligand preparation at its EC50, read-out: Ca^2+ Mobilization IC50. The protocol:
At a time of 24 h prior to running the assay, in cell culture media (DMEM containing high Glucose and L-glutamine, 10% FBS, 1% Pen/Streptomycin, 1% Sodium Pyruvate, 20 mM HEPES, Zeocin 200 mg/L), […] of 1.3*10^6/ml HEK 293 GPR73 (prokineticin 1 receptor) expressing cells were plated in a 96 well poly-d-lysine coated plate (Costar), and incubated at 37° C. and 5% CO2. On the day in which the assay was run, the media was removed and […] of 5× Calcium Plus Dye (Molecular Devices) which was previously resuspended with 200 mL of assay buffer [HBSS w/Ca^2+ and Mg^2+ w/o phenol red, 20 mM HEPES, 0.1% BSA, 10 mL probenecid (710 mg probenecid in 5 mL of 1N NaOH, to which was then added 5 mL HBSS containing 20 mM HEPES)] was added to each well of the 96-well plate. The plate was incubated at 37° C. and 5% CO2 for 30 min in dark. The plate was removed and allowed to reach RT for 15 min in the dark. The assay was then run on the FLIPR. In Brief: base line read for 1 min, compound added (25 μL) and incubated for 4 min, 15 seconds, PK1 ligand preparation added (25 μL) for a final concentration of a previously determined EC50 and fluorescence was counted for 1 min, 45 seconds. Baseline is described as the amount of relative fluorescence read when buffer alone is added to cells. Baseline was subtracted from all wells. Percent of control was calculated as follows:
(Baseline subtracted well value is divided by baseline subtracted max value)*100. Percent inhibition is 100 minus the percent of control value.
The IC50 is defined as the amount of a given compound required to inhibit 50% of the maximum signal that is generated by the concentration of PK1 preparation used in our assay. IC50 values were calculated using GraphPad Prism.
In general terms: A change in cytosolic calcium serves as a functional read-out for many receptors and channels.

Assay [2] deals with pro-secretory effect of carbachol. Kind of assay: Selectivity test against carbachol-evoked secretion in rat ileum mucosa, Ussing-type chambers.
Assay [3] concerns Cholera toxin stimulated gut secretion. Further details: species or system rat.
Assay [4] concerns the target T2, PK1 receptor (Rattus norvegicus, UniProt Q8R416).
T2 construct: The PK1 evoked increase in Isc requires the presence of endogenous PK1 receptors; from tissue; host or cells: isolated rat ileum mucosa
Kind of assay: Suppression of PK1-evoked increase in Isc in isolated rat ileum mucosa, Ussing-type chambers. The conditions noted are these: 1 μM test compound, 15 min; PK1 10 and 100 nM cumulative. On the procedure:
Methodology. The basic methodology for Ussing-type ion flux chambers used in these studies was the same as that described in detail above with the following modifications to the experimental protocol. […] The responses to two sequential EFS were used to gauge tissue viability and comparability of the responses of individual tissues from each rat and between rats. Tissue conductance was measured at periodic intervals as changes in the amplitudes of brief short-circuit current responses evoked by application of 1 mV amplitude bi-polar pulses from a pulse generator using Ohm's Law. Three to four tissues from each rat were studied. The tissues from a given animal were grouped and assigned accordingly: one control tissue which received only vehicle followed by two consecutive doses of PK-1 ligand added in a cumulative fashion to the basolateral surface of the tissue; the remaining two to three tissues from the same animal were assigned to be exposed to a given PK-1 receptor antagonist (e.g., 3-4 tissues from 1 rat: Control, Antagonist1, Antagonist2, and/or Antagonist3). Test compound was added to the basolateral tissue side reservoir at a final concentration of 1 μM and allowed a 15 minute incubation period prior to challenge with the PK1 peptide. […]

Assay [5] concerns ileum mucosal tissues from PK1 receptor knock-out mice. Kind of assay: PK1 effect on Isc in ileum mucosal tissues from PK1 receptor knock-out mice. The conditions noted are these: exogenous PK1 peptide.

T1 sequence (Q8TCW9 whole entry, species assumed): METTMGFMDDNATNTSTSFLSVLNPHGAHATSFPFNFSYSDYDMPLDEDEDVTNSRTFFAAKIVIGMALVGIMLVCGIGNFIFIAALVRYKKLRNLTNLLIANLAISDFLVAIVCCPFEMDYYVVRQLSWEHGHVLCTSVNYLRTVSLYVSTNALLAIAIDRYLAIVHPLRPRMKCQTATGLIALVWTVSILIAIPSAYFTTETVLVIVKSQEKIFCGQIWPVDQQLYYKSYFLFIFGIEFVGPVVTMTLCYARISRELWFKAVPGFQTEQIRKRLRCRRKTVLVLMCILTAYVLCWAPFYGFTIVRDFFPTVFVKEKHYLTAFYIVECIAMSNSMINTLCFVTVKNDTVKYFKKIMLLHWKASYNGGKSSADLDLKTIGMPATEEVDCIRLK
T2 sequence (Q8R416 whole entry): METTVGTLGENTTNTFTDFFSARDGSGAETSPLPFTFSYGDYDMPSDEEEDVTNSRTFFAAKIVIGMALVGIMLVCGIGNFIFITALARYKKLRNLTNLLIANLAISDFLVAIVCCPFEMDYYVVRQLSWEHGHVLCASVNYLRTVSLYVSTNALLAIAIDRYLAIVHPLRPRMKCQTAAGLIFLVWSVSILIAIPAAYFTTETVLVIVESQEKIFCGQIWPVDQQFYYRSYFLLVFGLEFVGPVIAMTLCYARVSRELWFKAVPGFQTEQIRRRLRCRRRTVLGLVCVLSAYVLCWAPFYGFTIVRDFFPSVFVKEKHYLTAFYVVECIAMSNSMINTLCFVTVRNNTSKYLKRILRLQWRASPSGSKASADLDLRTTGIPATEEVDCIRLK

Consider `COc1ccc(Cn2c(=O)nc(NCc3cnc(C)cc3C)n(Cc3ccc(OC(F)F)cc3)c2=O)cc1` [Cpd 96], for which the inhibition at 10 µM in assay [1] (@10 μM compound) was determined as 92%.

With `COc1ccccc1Cn1c(=O)nc(NCc2cnc(C)cc2C)n(Cc2ccc(OC(F)F)cc2)c1=O` [Cpd 193], in assay [1] (@10 μM compound), the inhibition at 10 µM stood at 39%. Moreover, the IC50 in assay [1] is more than 10000 nM.

For `COc1ccc(Cn2c(NCc3cccnc3N)nc(=O)n(Cc3ccc(OC)cc3)c2=O)cc1` [Cpd 3, 6-[(2-Amino-pyridin-3-ylmethyl)-amino]-1,3-bis-(4-methoxy-benzyl)-1H-[1,3,5]triazine-2,4-dione], the “suppression of the pro-secretory effect of carbachol (unrelated secretagogue)” value is recorded as “without inhibiting” in assay [2] and “without inhibiting; also recorded: failed to suppress” in assay [2] (two ascending cumulative carbachol concentrations, serosal side). Besides, the “suppression of Cholera toxin-evoked stimulation of gut secretion (in words)” value in assay [3] was “suppresses”. Also, in assay [3], the “suppression of the sustained increase in baseline Isc evoked by Cholera toxin” value was 50-60%. Moreover, the “suppression of the PK1 evoked increase in Isc” value in assay [4] was “suppresses; also recorded: significant surmountable antagonism”.

In the case of `COc1ccc(Cn2c(NCc3cccnc3)nc(=O)n(Cc3ccc(OC)cc3)c2=O)cc1` [Cpd 40], in assay [1] (@10 μM compound), the inhibition at 10 µM stood at 83%. In addition, the half-inhibitory concentration (IC50) in assay [1] amounted to 557 nM.

With `COc1ccc(Cn2c(=O)nc(NCc3cnc(C)cc3C)n(Cc3ccccc3OC)c2=O)cc1` [Cpd 106], the “Ca^2+ Mobilization % Inh @10 μM” value in assay [1] (@10 μM compound, 10 µM) is reported as 101%. Besides, in assay [1] (@10 μM compound), the inhibition at 10 µM was determined as 99%. In assay [1], the half-maximal inhibitory concentration (IC50) was 25 nM and 74 nM.

B1: PK1: Recombinant human prokineticin-1 from HEK 293 cells, FLAG epitope cleaved; mixture of full-length ligand and four C-terminal residue truncated product (protein)
chain: AVITGACERDVQCGAGTCCAISLWLRGLRMCTPLGREGEECHPGSHKVPFFRKRKHHTCPCLPNLLCSRFPDGRYRCSMDLKNINF
modifications: mixture with C-terminal truncated product; Recombinant N-terminal FLAG-tagged human prokineticin-1 after enterokinase cleavage of Flag-tag
Take B1: the “change in Isc compared to wild-type littermates” value in assay [5] is reported as “failed to elicit a significant change”.
